For orientation: IC50 means the point on the concentration scale where inhibition reaches its midpoint.

What all share (type): protein assay
The target of assay [1] is Dopamine receptor. Put plainly: Tested for displacement of rat caudate dopamine receptors by using [3H]apomorphine as radioligand.
The target of assay [2] is Dopamine receptor. The experiment in a line: Tested for displacement of rat caudate dopamine receptors by using [3H]spiperone as radioligand.
Assay [3] addresses Dopamine receptor. The experiment in a line: Tested for displacement of rat striatal dopamine receptors by using [3H]apomorphine as radioligand.

Consider `CN(C)CCCN1c2ccccc2Sc2ncc(Cl)nc21`, for which the values for the IC50 on Dopamine receptor [1] and on Dopamine receptor [2] were 67.3 nM and 62.1 nM, respectively.

For `Cc1cnc2c(n1)N(CCCN(C)C)c1ccccc1S2`, the IC50 on Dopamine receptor [2] came out at 382 nM; at Dopamine receptor [3], 103 nM.

As to `CN(C)CCCN1c2cc(Cl)ccc2Sc2nccnc21`, the IC50 on Dopamine receptor [2] was 9166 nM; on Dopamine receptor [3], 5968 nM.

As for `CN(C)CCCN1c2ccccc2Sc2nc(Cl)cnc21`, the half-inhibitory concentration (IC50) is recorded as 1222 nM at Dopamine receptor [1] and 553 nM at Dopamine receptor [2].

These data come from ChEMBL document CHEMBL1122460, “Preparation of some 10-[3-(dimethylamino)-1-propyl]-10H-pyrazino[2,3-b][1,4] benzothiazines as potential neuroleptics” (J Med Chem, 1983).
